Experimental data as given in US20140099354A1, “BIOPASSIVATING MEMBRANE STABILIZATION BY MEANS OF NITROCARBOXYLIC ACID-CONTAINING PHOSPHOLIPIDS IN PREPARATIONS AND COATINGS” (priority 2011, published 2014).
Values belong to the molecule of their own block, whether it stands above or below them.

Experiments:
[1] = tested on: Human red blood cells; experiment: Erythrocyte membrane stability (osmotic, mechanical, storage); assay type: cell-based; settings: 30 mmol/l, incubated for an hour
Description: The physico-chemical properties of cell membranes determine their strength of resistance to physical, chemical and immunological alterations. Human red blood cells and mast cells from mice dissolved in solutions of physiological NaCl containing the natural phospholipids SOPC and PLPC or the analogue nitrated phospholipids (1-stearoyl-2-(9-nitrooleoyl)-sn-PC (example P14) and 1-palmitoyl-2-(9-nitrolinoleoyl)-sn-PC) (example P7) at a concentration of 30 mmol/l were incubated for an hour in order to assess the effects of an up-take of phospholipids into the cell membranes with respect to resistance to external alterations. Similarly, cells incubated with mixtures of nitro-carboxylic acid (s)-containing phospholipids according to examples N2-N14, F, Q, S, O3-O6, P1-P3 and P6 were investigated.
For assessment of osmotic stability, cells were separated from serum by centrifugation first and then cleaned three times with physiological NaCl solution. […] After incubation for 30 minutes under the above described conditions, the tubes were centrifuged and an aliquot was taken for photometric measurement of hemoglobin by absorbance at a wavelength of 546 nm at a temperature of 30° C.
For the examinations of mechanical stability, erythrocytes were prepared according to the procedure above. […] Then, the samples were centrifuged and supernatants were analyzed as stated above. […]

[2] = tested on: TRPV1, 2 and 4, TRPA1; experiment: Inducible ion current of TRP receptors in Xenopus oocytes (voltage clamp); assay type: cell-based, rat; settings: 50 mmol/l, 10 and 60 minutes
Description: An established in-vitro model of Xenopus oocytes (Dascal N, 1987 The use of Xenopus oocytes. CRC critical reviews in biochemistry 22, 317-387) was used to study the influence of incubation with PL on ion channels regulated by membrane receptors. Defolliculized oocytes were transfected with cRNA (rat) of TRPV1, 2 and 4, as well as of TRPA1, stored in tissue culture plates and incubated in culture medium (ND 96) at 15° C. under constant motion in the incubator for 7 to 10 days.
Induced leakage currents through activation of the TRP receptors was determined by means of double electrode voltage-clamp technique (Ahern G P, Brooks I M, Miyares R L &Wang X B, 2005, Extracellular cations sensitize and gate capsaicin receptor TRPV1 modulating pain signalling. J Neurosci 25, 5109-5116). Ooocytes were probed with borosilicate glass capillaries (Clark) and connected to a feedback amplifier (Gene clamp Amplifier, Axon instruments). The membrane potential of oocytes was clamped to −60 or −90 mV. The presence of a directive […] current was compared to non-transfected controls. The investigations were performed in a miniature organ bath in calcium-free buffered (Hepes, pH 7.3) NaCl solution. The TRPV1 receptor excitation was initiated by rapidly changing of the bath solution against a capsaicin solution (10 μmol). Results of non-pretreated oocytes were used for normative comparison of subsequent measurements of incubatesd cells. Investigations with incubated cells were carried out in the same way for oocytes transfected with the TRPV2, and TRPV4 and TRPA1 receptors, wherein the receptor agonists cannabidiol (10 μmol) and 4α-PDD (4α-phorbol 12,13-didecanoate, 50 μmol) and innamaldehyde (50 μmol) were used instead of capsaicin.

[3] = Abrasion stability and traction work load of coated balloon catheters; assay type: physicochemical
Description: Balloon catheters were coated by means of the Langmuir-Schaefer procedure where the balloon segment was aligned longitudinally and coaxial to the solution surface, dipping into the liquid for approx. 1 mm over the entire length. Then the catheter was slowly rotated around its axis 5 times. Phospholipids were dissolved at a concentration of 3 mmol in an ion-free aqueous solution at 50° C. The solution was cooled and given to the coating solution then. In case of incomplete dissolution of the phospholipids or if they separated when cooled, DMSO was added at a concentration of up to 20 vol.-%, preferably up to 10 vol.-%. After coating, the catheters were vacuum dried for 8 hours in order to remove residual solvent.
The tubing was filled with a 10% human albumin solution at a temperature of 35° C. The cable system, which had previously been brought through the tubing was connected to the catheter tip and tracked outside the tubing by reversing pulleys, which allowed exactly vertically traction of the cable that was connected to a motorized winch. The winch was mounted on a digital precision balance. The catheters mounted in this manner were pulled through the tubing system and the weight changes measured by the balance, which represented the traction work load achieved for the passage of the catheter, was recorded continuously. These readings were integrated over time. The resultant values allow estimation of the total shear force that occurred during the passage of the catheter through the tubing system.
The abrasion or loss of coating layers was determined by weighing the catheter before and after coating as well as after the mechanical stability test in the tubing system as described above using a high precision balance.

[4] = tested on: sciatic nerve; experiment: Viability of cryopreserved nerve grafts (Annexin-V staining, FACS); assay type: cell-based, rats; settings: 100 mmolar solution 1 hour; −30° C. 72 hours
Description: The sciatic nerve was prepared and sectured in anesthetized rats. The nerve pieces were freed from connective tissue and divided into 3 parts. Specimens were placed in culture DMEM medium containing low a concentration of glucose (1 g/L) with L-glutamine (PAA, Pasching Austria) for 24 hours. […] Nerve specimens from the same animals that received no pretreatment served as controls. After incubation, the specimens were cultured for 24 hours. In a further control group, specimens were cryopreserved without any pretreatment. The specimens were covered with a sterile gauze pad moistened with culture medium. Thereafter the temperature was gradually cooled to −30° C. After 72 hours, the nerve pieces were gradually rewarmed to 37° C. After this, renewed culturing was done for 48 hours. The nerve pieces were dissected enzymatically then (collagenase A and D, Roche, Mannheim, Germany) followed by a mechanical separation through multiple uptake and release in a glass pipette. The isolated cells were washed and marked with a living/death staining (Annexin-V-Fluos staining Kit, Roche Diagnostics, Mannheim, Germany) and quantified using FACS analysis. The number of living cells identified was set in relation to the total cells count.

[5] = Tissue response to coated silicone implants in vivo after bleomycin; parameters: species or system Wistar rats; settings: silicone cushions, subcutaneous, 7 to 90 days
Description: Induction of fibrotic tissue production by connective tissue activation as a consequence of implantation of foreign material was examined in an in-vivo animal model. As implant materials, sterile silicone cushions having a diameter of 1 cm were used.
In male Wistar rats (190-240 g) that were fed and housed under identical conditions for one week, general anaesthesia was performed by intramuscular injection of 0.008 mL/100 g ketamine and 0.004 mL/100 g xylocaln chloride 2%. Then the back of the animals was shaved, sterilized and infiltrated with xylocalne chloride. A paravertebral incision was made on both sides with a length of 1.5 cm followed by preparation of the subcutaneous tissue, so that on both sides approx. 2×2 cm cavities were preformed. Hemostasis was achieved by cauterization, if necessary. Then balls of cotton saturated with Bleomycin (cell-pharm GmbH, Hannover, Germany: 1% in 0.9% NaCl solution) were inserted into the cavities for 3 minutes and then removed. Without rinsing the cavities, the implants coated with a nitrated phospholipid were inserted into the cavity on the left side and the implants coated with natural phospholipid into the cavity on the right side. Thereafter, a layer by layer wound closure was performed and a sterile adhesive bandage was applied.
The animals were kept according to standard conditions for 7, 14, 30, 60 and 90 days. At any study time endpoint, two animals were euthanized. After death the well visible and palpable implants were removed using en-block resection technique. The resected specimens were fixed and embedded in paraffin. Then they were cut in half and the liquid silicone was removed. The specimens were embedded again and cut into thin slices which were stained with H & E and Sirius red, and evaluated by light microscopy. Evaluation was done according to the following criteria:
A1: none; A2: occasional monocytic cells or lymphocytes; A3: moderate numbers or groups of monocytic cells or lymphocytes; A4: dense infiltration of monocytes, eosinophils, or giant cells.
B1: none; B2: collagen-rich layer around the implant; B3: thick (>1 mm) and dense collagen-rich tissue formation around the implant.
In every 10th serial section 10 fields of view uniformly distributed over the circumference of the implant were evaluated and the herein predominant expression was assigned to an event table. In total, 200 fields of view were analyzed per implant

[6] = tested on: Heart muscle cells from rabbit hearts; experiment: Cytosolic Ca2+ concentration in heart muscle cells (fluo-4 fluorescence); assay type: cell-based
Description: Heart muscle cells were taken from rabbit hearts according to a method described elsewhere (Shannon T R, Ginsburg K S, Bers D M. Quantitative assessment of the SRCa^2+ leak-load relationship. Circ Res. 2002; 91:594-600). The prepared cells were cultured for 72 hours.
The cytosolic Ca^2+ concentrations were determined with fluo-4 fluorescence. Therefore the cells were incubated with 10 μmol fluo-4 AM (1%) for 30 minutes and washed thereafter three times with PBS. The cells were stimulated in a Tryode solution on a platinum electrode with a frequency of 0.5 Hz over 20 cycles. Then the ambient medium was changed and an electrolyte-free colloidal solution was added. Determination of the Ca concentration was performed after each series of stimulation over 20 cycles. Calcium content was estimated by the use of confocal laser scanning microscopy (Olympus). At least 10 cells per experiment were evaluated in a post-systolic interval of 1000 ms. The measurements were repeated at least three times. β-adrenergic stimulation was performed with 250 nmol/L isoproterenol, which was given to the medium.

[7] = tested on: ovarian tissue strips; experiment: Cryopreservation of ovarian tissue strips: intact follicles; settings: liquid nitrogen 14 days, cultured 14 days
[8] = tested on: cortical neurons; experiment: Hypoxia and reperfusion of cortical neurons (viability, LDH)
Description: To determine whether the membrane-stabilizing properties of nitrated phospholipids can lead to attenuation of effects due to an ischemic event or the re-perfusion damage, cortical neurons and cardiac myocytes were investigated.
Freshly prepared cortex tissue was separated with Papain and tissue suspensions were cultured in culture vessels (Prim ARA; BD Biosciences, USA) with Neurobasal A/B27 medium (Invitrogen) for 10-12 days. Cell suspensions were divided, and replenished with suspensions of the natural phospholipids SOPC and PLPC, as well as the analogue phospholipids with nitration of unsaturated fatty acids (1-stearoyl-2-(9-nitrooleoyl)-sn-PC and 1-palmitoyl-2-(9-nitrolinoleoyl)-sn-PC) at concentrations of 10 to 50 μmol/l in NaCl (0.9%) were added. […] After 4 hours, the cells were washed three times with buffered saline and buffered NaCl solution with the addition of MgCl2 and CaCl2 in an anaerobic atmosphere (85% N2, 5% O2, 10% CO2; at 35° C.) for 10 and 30 minutes. Then, the cells were washed once and grown in culture medium under aerobic conditions for 24 hours. […] Cells were stained with annexin V-FITC and propidium iodide (Molecular probes, USA). The vital and necrotic cells were measured by flow cytometry (FACSCalibur, Becton & Dickinson). The volume of culture medium was determined and an aliquot was taken for determination of the LDH (lactate dehydrogenase) concentration.

[9] = tested on: ovarian tissue strips; experiment: Cryopreservation of ovarian tissue strips: 17 β-estradiol and progesterone (radio-immuno assay); assay type: cell-based, sheep; settings: after cryopreservation and culture
Description: Ovar ectomy was performed in female sheep; resected tissues were cut into 60 ovarian tissue strips. The ovarian strips were either cultured directly (n=4) or prepared with a usual solution for vitrification (VS group; Vitrification Kit, Sage, USA) or incubated with nitrated PLs (NPL group). For this purpose, the tissue strips were bathed in an equibrilation solution (ART-8025-A) which consisted of MOPS-buffered amino acids and gentamicin sulfate (10 mg/l), and 7.5% (v/v) of each DMSO and ethylene glycol and 12 mg/ml human serum albumin for 30 minutes. Thereafter the strips of the VS group were placed in the vitrification solution (ART-8025-B), which is a MOPS-buffered solution containing amino acids and gentamicin sulfate, that contain 15% (v/v) each DMSO and ethylenglycol, 12 mg/ml human albumin and 0.6 M sucrose. The strips of the NPL group were placed in a solution containing 25% (v/v) nitrated PL SNOPC or PNLPC in a PBS-buffered 1% DMSO solution containing 5% human albumin for 60 minutes. The treated tissue strips were then immersed into liquid nitrogen and kept here for 14 days. Then removal and warming of the tissue pieces was performed in AIM-V medium (Gibco, Invitrogen) in a sterile culture dish, first up to 5° C. within 20 minutes, then heated further in a water bath up to 37° C., within the following 60 minutes. The culture medium was replaced and specimens cultured for 14 days. After this, the tissue pieces were fixed, embedded in paraffin and cut, followed by histological examination. […] The total number of intact follicles in the control group was taken as a reference to the number of follicles in the cryopreserved groups.
The culture medium has been exchanged by every 2nd day; samples for hormone analysis were taken and frozen at that time. Determination of 17 β-estradiol and progesterone were performed with a radio-immuno assay (diagnostic systems laboratories, USA).

[10] = tested on: Cardiac muscle cells derived from neonatal rat heart; experiment: Hypoxia of cardiac muscle cells (viability, mitochondrial NAD+); assay type: cell-based; settings: for mitochondrial NAD+ content: hypoxia, baseline 5
Method in brief: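 Neonatal rat cardiomyocytes cultured two days in DMEM/10% FCS, incubated with natural or nitrated phospholipids and exposed to hypoxia, then grown 24 h before vitality staining. Mitochondria-containing pellets isolated by differential centrifugation; NAD+ measured fluorometrically and normalized to protein.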

[11] = target: Glycophorin A (GpA) peptides (Homo sapiens, UniProt P02724); settings: 10-50% (mol/mol) admixed to DSPC vesicles; versus native phospholipids
Chain of Glycophorin A (GpA) peptides (P02724 92-114 limits assumed, species assumed): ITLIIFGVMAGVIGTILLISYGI
Description: The change of the Frster resonance energy transfer (FRET) of fluorescence-labelled peptides with α helical trans-membrane structure in a double lipid layer can be used for determination of the concentration of monomeric and dimeric trans-membrane helices and for quantitative determination of helix-helix interactions.
FRET measurements were carried out with fluorescence-marked Glycophorin A (GpA) peptides. The transmembrane GpA forms dimers, whereby the energy transfer can be measured. 5-carboxyfluorescein and tetramethyl-6-carboxyrhodamine were used as chromophores.
Degree of dimerization of the model protein was measured in a direct comparison between native phospholipids and the corresponding phospholipids with a nitrated alkyl chain for the given concentrations of phospholipids (10-50%, mol/mol) admixed to the DSPC vesicles.
For determination of the dimerization, the peptides of FL GpAwt and TAMRA GpAwt were weighed and dissolved in TFE. The measurements were carried out on a fluorescence spectrometer of type Aminco Bowman series 2 (Thermo Spectronic).

[12] = tested on: Murine macrophages (RAW 264.7)
Description: The survival rate and cytokine production of adhering macrophages were examined to evaluate the bio-passivating properties of various nitro-carboxylic acid containing phospholipids.
Templates made of glass were coated with nitro-carboxylic acid-containing and native phosphatidylcholines and with an admixture of 50% phosphatidylcholine and phosphatidyletholamine, as described in example 2. […] The glass slides were placed in Teflon bowl, uncoated slides served as control. Murine macrophages (RAW 264.7) were cultured to a cell density of 5×10^5. Cell suspensions were added to the culture dishes, so that macrophages could attach on the slides under standard culture conditions for 24 to 48 hours. […] The cell survival rate was investigated using an MTT assay.

Structure (SMILES): CCCCCCCCC=C(CCCCCCCC(=O)OC[C@H](COP(=O)(O)OC1C(O)C(O)C(O)C(O)C1O)OC(=O)CCCCCCCC(=CCCCCCCCC)[N+](=O)[O-])[N+](=O)[O-] (stereo partly drawn) [Example F, 1,2-di-(9-nitrooleoyl)-sn-3-glycerophosphatidylinositol]
- erythrocyte membrane stability [1]: very similar values as the nitrated phosphocholines
- inducible membrane channel activity of TRP channels [2]: significant decrease of inducible membrane channel activity
- mechanical removal of coating substance and workload to pull the catheter through PTFE tubing [3]: Very similar results
- proportion of living cells relative to non-frozen control [4]: 88%
- biocompatibility of coated implants compared to natural PLs [5]: improved biocompatibility of implants several-fold

Structure (SMILES): CCCCCCCC/C=C(\CCCCCCCC(=O)O[C@H](COC(=O)CCCCCCCCCCCCCCC)COP(=O)(O)OCCN)[N+](=O)[O-] [Example S, 1-Palmitoyl-2-(E-9-nitrooleoyl)-sn-3-glycero-phosphatidylethanolamine]
- erythrocyte membrane stability [1]: very similar values as the nitrated phosphocholines
- inducible membrane channel activity of TRP channels [2]: significant decrease of inducible membrane channel activity
- mechanical removal of coating substance and workload to pull the catheter through PTFE tubing [3]: Very similar results
- proportion of living cells relative to non-frozen control [4]: 85%

Structure (SMILES): CCCCCCCC/C=C(\CCCCCCCC(=O)O[C@H](COC(=O)CCCCCCCCCCCCCCCCC)COP(=O)([O-])OCC[N+](C)(C)C)[N+](=O)[O-] [Example P14, 1-stearoyl-2-(E-9-nitrooleoyl)-sn-3-glycerophosphocholine]
- end of diastole (ED) cytosolic calcium ([6]; after hypoxia): 80 nmol/L
- post systolic (PS) cytosolic calcium ([6]; after hypoxia): 40 nmol
- end of diastole (ED) cytosolic calcium ([6]; after hypoxia and stimulation with isoproterenol): 90 nmol/L
- end of diastole (ED) cytosolic calcium ([6]; normoxic conditions): 30 nmol/L
- post systolic (PS) cytosolic calcium ([6]; normoxic conditions): 10 nmol
- rate of intact follicles relative to the control group [7]: 96%
- increase in LDH versus normoxemia culture ([8]; 10-minutes ischemia): 120 fold
- viability of cortical cells measured after 24 hours ([8]; 10-minutes ischemia): 68%
- increase in LDH versus normoxemia culture ([8]; 30-minutes ischemia): 230 fold
- viability of cortical cells measured after 24 hours ([8]; 30-minutes ischemia): 54%
- inducible membrane channel activity of TRP channels [2]: significant decrease of inducible membrane channel activity
- estradiol [9]: 8.6 ng/mL
- progesterone [9]: 0.6 ng/mL
- proportion of living cells relative to non-frozen control [4]: 86%
- loss of viability of heart muscle cells after hypoxia ([10]; (10 minutes)): 6%
- loss of viability of heart muscle cells after hypoxia ([10]; (30 minutes)): 16%
- mitochondrial NAD+ content ([10]; first printed value): 3.8 nmol/mg protein
- mitochondrial NAD+ content ([10]; second printed value): 3.3 nmol/mg protein
- biocompatibility of coated implants compared to natural PLs [5]: improved biocompatibility of implants several-fold
- degree of dimerization of the model membrane protein [11]: significantly greater reduction of dimerization

- mechanical removal of coating substance and workload to pull the catheter through PTFE tubing [3]: Very similar results
Structure (SMILES): CCCCCCCC/C=C(\CCCCCCCC(=O)OC[C@H](COP(=O)([O-])OCC[N+](C)(C)C)OC(=O)CCCCCCCCCCCCCCC)[N+](=O)[O-] [Example Q, 1-(9-Nitrooleoyl)-2-(palmitoyl)-sn-3-glycero-phosphocholine]
- rate of intact follicles relative to the control group [7]: 96%
- proportion of living cells relative to non-frozen control [4]: 80%
- viability of adhering macrophages [12]: 95-98%
